From patent US8796286B2, “Agent for treatment of liver diseases containing pyrazolopyrimidinone derivative” (Mezzion Pharma Co., Ltd., priority 2005, dated 2014)
Where two headings read alike, the source gives them in different places.

What was measured:
[1] = system: collagen synthesis in liver, hepatic fibrosis model; experiment: Liver protective effect in DMN-induced hepatic fibrosis animal model (collagen type I/III immunohistological staining); format: in vivo, Sprague Dawley rat; conditions: 10 mg/kg/day oral for 2 weeks; for collagen synthesis in hepatic portal veins and around the portal veins (immunohistology): DMN 10 mg/kg i.p. three times per week for 2 weeks, versus solvent control
Description: The following experiments were performed to investigate the in vivo collagen synthesis inhibitory effect of pyrazolopyrimidinone derivative of the present invention. Sprague Dawley white female rats (having approximately 300 g in weight) were divided into 4 groups (5 rats per group), and hepatic fibrosis was induced in experimental groups except the wild type control group (Toxicology, 2001). DMN (dimethylnitrosamine) was injected into the abdominal cavity in a dose of 10 mg/kg serially for 2 weeks with a dose frequency of three times per week. […] Only triazole buffer was administered to the solvent control group. Two weeks later, the liver was extracted, fixed in 10% neutral formalin, embedded in paraffin and sliced by […]. Each section was treated with xylene to eliminate paraffin, followed by treatment with alcohol and 0.1% hydrogen peroxide (H2O2). After treatment with PBS, the sections were treated with polyclonal antiserum (Chemicon) against collagen type I diluted by 1:500 and polyclonal antiserum (BioGenesis) against collagen type III diluted by 1:100, at 37° C. for one hour. After washing, samples were treated with 1:200 diluted biotin-conjugated goat anti-rabbit IgG. Immunohistological staining was performed by reacting the samples with avidin-biotin complex (Vector Laboratories), then antigen-antibody complex was marked with 3-amino-9-ethylcarbazole (AEC), whose image was taken by optical microscope now shown in FIG. 1-4. The control group was treated with non-immunized horse serum instead of primary antibody.

[2] = system: experimental cirrhosis models; conditions: dose-dependently; cited from earlier work
[3] = system: collagen synthesis in hepatic stellate cells; experiment: Inhibitory effect on collagen synthesis using hepatic stellate cells (RT-PCR for collagen); format: cell-based, Sprague Dawley rat; conditions: for IC50: Rattus norvegicus, hepatic stellate cells pre-treated with 25 ng/mL PDGF for 24 hours, collagen RT-PCR relative to beta-actin, mean ± standard deviation
Description: The following experiments were performed to investigate the inhibition effect of pyrazolopyrimidinone derivative of the present invention on collagen synthesis. Hepatic stellate cells were isolated from Sprague Dawley white male rats (about 300 g in weight, n=10). First, ketamin was injected into the abdominal cavity to anesthetize the rats. The abdomen was opened and heparin was injected into the portal vein. Then, Hank's buffer solution containing 0.02% pronase and 0.015% collagenase was perfused through the liver for a required time to prepare liver in sections. The extracted liver was crushed on a sterilized petri-dish, then put in a buffer solution containing pronase and DNase, and the crushed liver was then homogenized on a sterilized petri-dish. The prepared sample was filtered with 100 μm nylon mesh in a 50 mL tube. Centrifugation was performed with 50 g for 2 minutes to separate nonparenchymal cells in supernatant. Centrifugation was performed again with 450 g at 4° C. for 10 minutes. The precipitate was floated in a buffer solution containing 25 μg/mL of DNase, followed by centrifugation with 450 g at 4° C. for 10 minutes, which was repeated twice. The final precipitate was floated in 21 mL of buffer solution, which was then mixed with 17 mL of 25% OptiPrep to prepare the final solution of 11.2% OptiPrep (1.058 cm^3). Cell suspension solution mixed with OptiPrep was carefully distributed into four 15 mL tubes containing 3 mL of 17% OptiPrep, to which 1 mL of buffer solution was added. Centrifugation was performed with 1400 g at 4° C. for 17 minutes, and as a result, pure hepatic stellate cells were obtained from the opaque layer between the buffer solution and […]. The separated hepatic stellate cells were suspended in DMEM (Dulbecco's Modified Eagle' Media), followed by washing. The cells were suspended again in DMEM supplemented with 10% FBS (Fetal Bovine Serum) and antibiotics, then inoculated into a culture vessel, which was cultured in a 37° C. 5% CO2 incubator. The culture medium was first replaced 24 hours later, and then replaced every 48 hours for sub-culture. Hepatic stellate cells sub-cultured 8 times were grouped by 2×10^5, which were pre-treated with 25 ng/mL of PDGF (Platelet Derived Growth Factor) for 24 hours. […] The total RNA was extracted and RT-PCR (Reverse Transcriptase Polymerase Chain Reaction) for collagen was performed. Based on the relative concentration to beta-actin, a target material was compared with other test samples. In order to determine the inhibitory effect of a target sample on collagen synthesis, inhibitory concentration 50% (IC50) was investigated, and the result is shown in Table 1.

[4] = In vivo pharmacokinetics in portal hypertension patients (plasma HPLC); conditions: human
Description: Nine volunteers among portal hypertension patients who were in the criterion of age from 19-45 and weight over 45 kg (within 15% deviation of ideal body weight) participated in experiments. They were all volunteers who agreed in writing to join the experiments and were trustworthy, cooperative and willing to follow the rules.
A double blind method was used for the experiments. At 8-9 am on the test day, test medicines were given with 240 mL of water to volunteers. For 4 hours from the administration, they were fasted, and lunch was provided 4 hours later and dinner was provided 9 hours later. Blood samples were taken before the administration on the test day and at the 0.5th, 1st, 1.5th, 2nd, 2.5th, 3rd, 4th, 5th, 6th, 8th, 12th, 24th and 32nd hour after the administration. Blood plasma was isolated, followed by HPLC. 100 μL of 0.1 M sodium carbonate and 1.0 mL of ethyl ether were added to 0.5 mL of blood plasma, then mixed well for 1 minute, followed by centrifugation at 12,000 rpm for 3 minutes. Supernatant was obtained and organic solvent was volatilized using speed vac. Then, 100 μL of moving phase was added, followed by stirring.

[5] = system: portal hypertension model; experiment: Portal hypertension animal model (bile duct ligation): portal blood pressure, portal vein diameter, blood flow; format: in vivo, beagle dog; conditions: 10 mg/kg/day oral for two weeks; for Portal vein diameter / Blood flow rate (portal vein) / Portal blood pressure: bile duct ligated beagle dogs, mean ± standard deviation; for Portal vein diameter: Doppler ultrasonography
Description: The following experiments were performed to investigate the effect of pyrazolopyrimidinone derivative on portal hypertension. 12 beagle dogs weighing about 10 kg were divided into four groups (3 dogs were chosen per group randomly), and bile duct ligation was performed on them. […] The animals were fasted for 4 hours, then pentobarbital was intravenously injected to anesthetize them. A tube was inserted through the mesenteric vein to the portal vein to measure portal blood pressure. Doppler ultrasonography was also performed to measure the diameter of portal vein. Blood flow through the portal vein was measured by using the following mathematical chemistry FIG. 1, and the result is shown in Table 2. [formula]

[6] = Solubility (physicochemical properties)
[7] = pKa (physicochemical properties)

Compound | collagen synthesis in hepatic portal veins and around the portal veins (immunohistology) [1] | IC50 [3] [nM] | blood flow rate through portal vein increase compared with solvent treated group [5] [%] | portal blood pressure decrease compared with solvent treated control group [5] [%] | Portal vein diameter [5] [mm] | Blood flow rate (portal vein) [5] [mL/min] | Portal blood pressure [5] [kPa] | other results
CCCc1nn(C)c2c(=O)[nH]c(-c3cc(S(=O)(=O)N4CCN(C)CC4)ccc3OCC)nc12 [Sildenafil, sildenafil] | remarkably inhibited | 13.1 ± 2.3 | 29.1 | 7 | 7.47 ± 0.21 | 754.47 ± 80.24 | 2.93 ± 0.25 | Portal blood pressure [2]: increases; blood flow through mesenteria [2]: increases; half-life ([4]; plasma, patients with portal hypertension, 50 mg oral, mean ± standard deviation, read-out: Half-life (converted)): 4.5 ± 1.2 h
CCCc1nc(C)c2c(=O)[nH]c(-c3cc(S(=O)(=O)N4CCN(CC)CC4)ccc3OCC)nn12 [Vardenafil, vardenafil] | – | 7.8 ± 1.7 | 24.8 | 9 | 7.43 ± 0.21 | 729.29 ± 83.23 | 2.87 ± 0.25 | half-life ([4]; plasma, patients with portal hypertension, 10 mg oral, mean ± standard deviation, read-out: Half-life (converted)): 6.3 ± 2.1 h
CCCOc1ccc(S(=O)(=O)NCCC2CCCN2C)cc1-c1nc2c(CCC)nn(C)c2c(=O)[nH]1 (stereo not shown) [Pyrazolopyrimidinone derivative, 5-[2-propyloxy-5-(1-methyl-2-pyrrolidinylethyl amidosulfonyl)phenyl]-1-methyl-3-propyl-1,6-dihydro-7H-pyrazolo(4,3-d)pyrimidin-7-one] | remarkably inhibited | 0.8 ± 0.2 | 59.9 | 21 | 7.70 ± 0.26 | 932.31 ± 89.83 | 2.50 ± 0.20 | inhibition of collagen synthesis compared with the sildenafil treated group ([1]; DMN rats): greater than that in the sildenafil treated group; solubility in acetic acid, methanol and chloroform ([6]; acetic acid, methanol and chloroform): soluble; solubility in water ([6]; water): insoluble; pKa1 [7]: 6.5; pKa2 [7]: 12.5; collagen synthesis inhibitory effect, times higher than sildenafil ([3]; ratio of IC50 versus sildenafil): 16 times; collagen synthesis inhibitory effect, times higher than vardenafil ([3]; ratio of IC50 versus vardenafil): 10 times; collagen synthesis inhibitory effect, times as excellent as other conventional PDE 5 inhibitors ([3]; versus other conventional PDE 5 inhibitors (Table 1)): 10-16 times; half-life, fold longer than vardenafil ([4]; in vivo): two fold; half-life ([4]; in vivo, po, 100 mg): 15.1 ± 3.5 h
